Experimental data: PubChem BioAssay (NCI)
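How tested: cells in 96-well plates exposed to compound for 48 hours at five concentrations. GI50: concentration for 50% inhibition of growth. TGI is the concentration that stops growth completely.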

How the values were obtained:
Experiment in all cases: NCI anticancer screen, dose series, 48 h
SNB-75 CNS = system: SNB-75 CNS
RXF 393 renal = system: RXF 393 renal
MOLT-4 leukemia = system: MOLT-4 leukemia
SF-295 CNS = system: SF-295 CNS
SW-620 colon = system: SW-620 colon
DU-145 prostate = system: DU-145 prostate
TK-10 renal = system: TK-10 renal
MDA-MB-231 breast = system: MDA-MB-231 breast
NCI-H23 lung = system: NCI-H23 lung
MDA-MB-435 = system: MDA-MB-435

Structure (SMILES) | TGI (SNB-75 CNS) | TGI (RXF 393 renal) | TGI (MOLT-4 leukemia) | TGI (SF-295 CNS) | TGI (SW-620 colon) | TGI (DU-145 prostate) | TGI (TK-10 renal) | TGI (MDA-MB-231 breast) | TGI (NCI-H23 lung) | TGI (MDA-MB-435) | GI50 (SNB-75 CNS) | GI50 (RXF 393 renal) | GI50 (MOLT-4 leukemia) | GI50 (SF-295 CNS) | GI50 (TK-10 renal) | GI50 (SW-620 colon) | GI50 (MDA-MB-231 breast) | GI50 (NCI-H23 lung) | GI50 (MDA-MB-435) | GI50 (DU-145 prostate)
CC/C(=C(\c1ccccc1)c1ccc(OCC[N+](C)(C)C)cc1)c1ccccc1 | 23.9 µM | 36.9 µM | 36.4 µM | 33.8 µM | 30 µM |  |  |  |  |  |  |  |  |  |  |  |  |  |  | 
Nc1cc2[nH]c(=O)c3cc(Cl)ccc3c2cc1Cl | 61.8 µM |  | > 100 µM | 44.2 µM | > 100 µM | 39.1 µM | 33.7 µM | 68.6 µM | 72.5 µM | 52.1 µM |  |  |  |  |  |  |  |  |  | 
Cc1cc(N2CCOCC2)nc(N(CCNc2ccnc3cc(Cl)ccc23)Cc2cccs2)n1 | 5.25 µM | 3.47 µM | 5.93 µM | 3.13 µM | 4.18 µM |  | 6.57 µM | 3.64 µM | > 100 µM | 3.32 µM | 1.98 µM | 1.74 µM | 2.58 µM | 1.58 µM | 2.35 µM | 1.92 µM | 1.97 µM | 3 µM | 1.76 µM | 
CC(=O)NC(Cc1ccccc1)C(=S)N1CCCC1 (stereo unspecified) | > 100 µM | > 100 µM | > 100 µM | > 100 µM | > 100 µM |  | > 100 µM |  | > 100 µM |  |  |  |  |  |  |  |  |  |  | 
O=C(Cc1nc2ccccc2s1)C(=O)Nc1ccccc1C(F)(F)F | > 100 µM | > 100 µM | > 100 µM | > 100 µM | > 100 µM |  | > 100 µM |  | > 100 µM |  |  |  |  |  |  |  |  |  |  | 
NCCN.O=N[O-].O=N[O-].O=N[O-].O=N[O-].[Co+3].[K+] | > 100 µM |  | > 100 µM | > 100 µM | > 100 µM |  | > 100 µM |  | > 100 µM |  | > 100 µM |  | > 100 µM | > 100 µM | > 100 µM | > 100 µM |  | > 100 µM |  | 
Cc1ccc(S(=O)(=O)NC2(C=O)CCC(C(C)(C)C)CC2)cc1 (stereo unspecified) | > 100 µM | > 100 µM | 41.3 µM | 94.9 µM | > 100 µM |  | > 100 µM |  | 85.6 µM |  |  |  |  |  |  |  |  |  |  | 
CCc1cccc(C(C)C)c1C1C(=O)C(=O)N(c2nc3ccccc3s2)C(=O)C1=O | > 100 µM | > 100 µM | > 100 µM | > 100 µM | > 100 µM |  | > 100 µM |  | > 100 µM |  |  |  |  |  |  |  |  |  |  | 
O=C(/C=C\c1ccc(Cl)c(Cl)c1)c1ccccc1 | 23.8 µM | 26.6 µM | 40.3 µM | 23.2 µM | 5.52 µM | 21.9 µM |  | 25.2 µM |  | 16.7 µM | 11.6 µM | 12.3 µM | 5.36 µM | 10.9 µM |  | 2.21 µM | 12.3 µM |  | 4.48 µM | 10.1 µM
Cc1nn(C(=O)CC(=O)Nc2ccccc2Cl)c(C)c1N=Nc1ccccc1Cl | > 100 µM | > 100 µM | > 100 µM | > 100 µM | > 100 µM |  | > 100 µM |  | > 100 µM |  |  |  |  |  |  |  |  |  |  | 
O=[N+]([O-])c1ccc(-c2ccc(C3=Nn4c(nnc4-c4ccc(Cl)cc4)SC3)o2)cc1 | > 65.3 µM |  | > 100 µM | > 82.1 µM | > 100 µM |  | 53.4 µM |  | > 85.9 µM |  |  |  |  |  |  |  |  |  |  | 
